Laboratory results: patent publication US12390456B2, “Pridopidine for treating Huntington's disease” (PRILENIA NEUROTHERAPEUTICS LTD., priority 2013, dated 2025)
Like-named read-outs stand apart in the source and are kept apart here.

Experiments:
patients with HD [1] = conditions: 12 weeks; 67.5 mg, 90 mg and 112.5 mg bid
Procedure: The primary efficacy variable and endpoint for this study is change from baseline in the UHDRS-TMS (defined as the sum of all UHDRS motor domains ratings) at Week 12.
The change from baseline in TMS is analyzed using a Repeated Measures model (SAS® MIXED procedure with REPEATED sub-command). The model includes the following fixed effects: categorical week in trial by treatment interaction, center, neuroleptic use or no use and baseline TMS score. The unstructured covariance matrix for repeated observations within patients is used.

patients with HD [2] = test system: patients with HD
Procedure: Study ACR16C007 explored the efficacy of 44 mg pridopidine once daily (qd) in 58 patients.

patients with HD [3] = conditions: 26 weeks; 67.5 mg, 90 mg and 112.5 mg bid
Source text: The Modified Physical Performance Test (mPPT) is used instead of the Physical Performance Test (PPT). The Walk-12 scale in used instead of the Multiple Sclerosis Walking Scale (MSWS).

patients with HD [4] = conditions: 26 weeks; 67.5 mg, 90 mg and 112.5 mg bid; remark: listed apart in the source
Source text: The model includes the following fixed effects: categorical week in study by treatment interaction, center, neuroleptic use or no use, and baseline UHDRS-TMS score. The unstructured covariance matrix for repeated observations within patients is used.

patients with HD [5] = conditions: cited from earlier work

Compound | changes from baseline in TMS (patients with HD [1]) | effect on mMS (patients with HD [2]; 45 mg bid, HART and MermaiHD) | improvement in UHDRS-TMS relative to placebo (patients with HD [2]; 45 mg bid, MermaiHD and HART) | findings on the TMS (patients with HD [2]; HART and MermaiHD) | efficacy in treating motor symptoms in HD (mMS and TMS) (patients with HD [2]; HART study, 10, 22.5 and 45 mg bid, 12 weeks) | changes from baseline in UHDRS-TMS (patients with HD [3]) | changes from baseline in UHDRS-TMS (patients with HD [4]) | effect on motor components other than chorea (patients with HD [5]; in vivo) | improvement on the UHDRS-TMS (patients with HD [5]; p=0.075, 45 to 47 points at baseline) [points]
CCCN1CCC(c2cccc(S(C)(=O)=O)c2)CC1 [pridopidine, 4-[3-(methylsulfonyl)phenyl]-1-propyl-piperidine] | Statistically significant changes | did not reach the pre-specified significance criteria | approximately 3 points | statistically significant findings | dose-dependent efficacy | Statistically significant changes | Statistically significant changes |  | 
COc1cc2c(cc1OC)C1CC(=O)C(CC(C)C)CN1CC2 (stereo not drawn) [tetrabenazine] |  |  |  |  |  |  |  | no significant effect | 3.3
